Measurements taken from ChEMBL document CHEMBL3997785, “Optimization of 2-Anilino 4-Amino Substituted Quinazolines into Potent Antimalarial Agents with Oral in Vivo Activity” (J Med Chem, 2017).
≈ marks a conversion by molar mass, not a printed value.

Legend:
HepG2 = assay: Cytotoxicity against human HepG2 cells assessed as growth inhibition after 48 hrs by Cell Titer-Glo assay; format: cell-based; conditions: HepG2, 48 h
[1] = Selectivity index, ratio of EC50 for human HepG2 cells to EC50 for Plasmodium falciparum 3D7 asexual blood stage infected in human erythrocytes; format: toxicity, cell-based; conditions: read-out: Ratio EC50
Plasmodium falciparum [2] = assay: Antimalarial activity against Plasmodium falciparum 3D7 asexual blood stage infected in human erythrocytes incubated for 72 hrs by LDH assay; format: functional, cell-based; conditions: 3D7, 72 h
Plasmodium falciparum [3] = assay: Antimalarial activity against chloroquine and mefloquine resistant Plasmodium falciparum W2mef infected in human erythrocytes incubated for 72 hrs by LDH assay; format: functional, cell-based
Plasmodium falciparum [4] = assay: Antimalarial activity against Plasmodium falciparum NF54 harboring pfs16-LUC-GFP late stage 4 to 5 gametocytes after 48 hrs by MitoTracker Red staining based confocal microscopy; format: functional; conditions: NF54, 48 h
Plasmodium falciparum [5] = assay: Antimalarial activity against Plasmodium falciparum NF54 harboring pfs16-LUC-GFP ring stage gametocytes after 24 hrs by MitoTracker Red staining based confocal microscopy; format: functional; conditions: NF54, 24 h
Plasmodium falciparum [6] = assay: Antimalarial activity against Plasmodium falciparum NF54 harboring pfs16-LUC-GFP early stage 1 to 3 gametocytes after 48 hrs by MitoTracker Red staining based confocal microscopy; format: functional; conditions: NF54, 48 h
Plasmodium falciparum [7] = assay: Antimalarial activity against synchronous culture of Plasmodium falciparum 3D7 ring stage parasite infected in human erythrocytes incubated for 6 hrs followed by compound wash out and measured after 24 hrs by NanoGlo-reagent based bioluminescence assay; format: functional, cell-based
Plasmodium falciparum [8] = assay: Antimalarial activity against synchronous culture of Plasmodium falciparum 3D7 ring stage parasite infected in human erythrocytes incubated for 24 hrs followed by compound wash out and measured after 24 hrs by NanoGlo-reagent based bioluminescence assay; format: functional, cell-based; conditions: 3D7, 24 h
[9] = Aqueous solubility of the compound at pH 6.5 by nephelometry; format: physicochemical
[10] = Intrinsic clearance in mouse liver microsomes at 1 uM in presence of NADPH by LC-MS method; format: ADME, microsome; conditions: read-out: CLH
[11] = Hepatic extraction ratio in human liver microsomes at 1 uM in presence of NADPH by LC-MS method; format: ADME, microsome; conditions: read-out: ERH
[12] = Half life in human liver microsomes at 1 uM in presence of NADPH by LC-MS method; format: ADME, microsome
[13] = Aqueous solubility of the compound at pH 2 by nephelometry; format: physicochemical
[14] = Hepatic extraction ratio in mouse liver microsomes at 1 uM in presence of NADPH by LC-MS method; format: ADME, microsome; conditions: read-out: ERH
[15] = Intrinsic clearance in human liver microsomes at 1 uM in presence of NADPH by LC-MS method; format: ADME, microsome; conditions: read-out: CLH
[16] = Half life in mouse liver microsomes at 1 uM in presence of NADPH by LC-MS method; format: ADME, microsome

SMILES | EC50 (Plasmodium falciparum [2]) | EC50 (HepG2) | selectivity ratio [1] | further results
CCOc1ccc(Nc2nc(NCc3ccccc3)c3ccccc3n2)cc1 | 159 nM | 4500 nM | 29 | –
Fc1ccc(Nc2nc(NCc3ccccc3)c3ccncc3n2)cc1 | 539 nM | 17800 nM | 33 | –
Fc1ccc(Nc2nc(NCc3ccccc3)c3ccccc3n2)cc1 | 77 nM | 5100 nM | 67 | –
Fc1ccc(Nc2nc(NCc3ccccc3)c3ccccc3n2)cc1Cl | 56 nM | 6300 nM | 114 | EC50 (Plasmodium falciparum [3]): 80 nM
CN1CCN(CCNc2nc(Nc3ccc(F)cc3)nc3ccccc23)CC1 | 42 nM | 15300 nM | 362 | EC50 (Plasmodium falciparum [3]): 122 nM
C[C@H]1[C@H](OC(=O)CCC(=O)O)O[C@@H]2O[C@@]3(C)CC[C@H]4[C@H](C)CC[C@@H]1[C@@]24OO3 [ARTESUNATE] | 8 nM | – | – | EC50 (Plasmodium falciparum [4]): 8 nM; EC50 (Plasmodium falciparum [5]): 3 nM; EC50 (Plasmodium falciparum [3]): 6 nM; EC50 (Plasmodium falciparum [6]): 3 nM
COC(=O)c1ccc(Nc2nc(NCc3ccco3)c3ccccc3n2)cc1 | 574 nM | 33500 nM | 58 | –
COc1cccc(Nc2nc(NCc3ccco3)c3ccccc3n2)c1OC | 1300 nM | 20100 nM | – | –
CN1CCN(CCNc2nc(Nc3ccc(F)c(Cl)c3)nc3cccnc23)CC1 | 110 nM | 8900 nM | 80 | –
CC(=O)Nc1ccc(Nc2nc(NCC3CCCO3)c3ccccc3n2)cc1 (centres undefined) | 274 nM | 38300 nM | 140 | –
COc1cccc(Nc2nc(NCC3CCCO3)c3ccccc3n2)c1 (centres undefined) | – | 7700 nM | 33 | –
Fc1ccc(Nc2nc(NCCN3CCOCC3)c3ccccc3n2)cc1 | 118 nM | 30100 nM | 256 | –
Clc1cc(Nc2nc(NCc3ccccc3)c3ccccc3n2)ccc1Br | 137 nM | 2900 nM | 40 | EC50 (Plasmodium falciparum [3]): 128 nM
C[C@@H]1CC[C@H]2[C@@H](C)C(=O)O[C@@H]3O[C@@]4(C)CC[C@@H]1[C@]32OO4 [ARTEMISININ] | – | – | – | EC50 (Plasmodium falciparum [7]): 5 nM; EC50 (Plasmodium falciparum [8]): 2 nM
Fc1cc(Nc2nc(NCc3ccccc3)c3ccccc3n2)ccc1Cl | 121 nM | 6600 nM | 55 | EC50 (Plasmodium falciparum [3]): 75 nM
Clc1ccc(Nc2nc(NCc3ccco3)c3ccccc3n2)cc1 | – | 7400 nM | 71 | –
Fc1ccc(Nc2nc(NCc3ccccc3)c3ncccc3n2)cc1 | 57 nM | 18200 nM | 320 | –
Clc1cccc(Nc2nc(NCc3ccco3)c3ccccc3n2)c1 | 134 nM | 5000 nM | 37 | –
COc1ccc(Nc2nc(NCc3ccco3)c3ccccc3n2)cc1 | 124 nM | 2500 nM | 20 | –
Fc1cccc(Nc2nc(NCC3CCCO3)c3ccccc3n2)c1 (centres undefined) | 144 nM | 8600 nM | 39 | –
COc1ccc(Nc2nc(NCc3ccccc3)c3ccccc3n2)cc1 | 264 nM | 8500 nM | 32 | solubility kinetic [9]: 1.6 to 3.1 µM (≈ 0.57 to 1.1 µg/mL); microsomal CLint at 1 µM [10]: 123 µL/min/mg; hepatic extraction ratio at 1 µM [11]: 0.51; half-life at 1 µM [12]: 65 min; solubility kinetic [13]: 25 to 50 µM (≈ 8.91 to 17.8 µg/mL); hepatic extraction ratio at 1 µM [14]: 0.73; microsomal CLint at 1 µM [15]: 27 µL/min/mg; half-life at 1 µM [16]: 14 min
COc1ccc(Nc2nc(NCC3CCCO3)c3ccccc3n2)c(OC)c1 (centres undefined) | 1100 nM | 15800 nM | 19 | –
NC(=O)c1ccc(Nc2nc(NCC3CCCO3)c3ccccc3n2)cc1 (centres undefined) | 691 nM | 34600 nM | 50 | –
COc1cc([C@@H]2c3cc4c(cc3[C@@H](O[C@@H]3O[C@@H]5CO[C@@H](C)O[C@H]5[C@H](O)[C@H]3O)[C@H]3COC(=O)[C@H]23)OCO4)cc(OC)c1O [ETOPOSIDE] | – | 15900 nM | – | –
COc1ccc2nc3cc(Cl)ccc3c(Nc3cc(CN4CCCC4)c(O)c(CN4CCCC4)c3)c2n1 [PYRONARIDINE] | – | – | – | EC50 (Plasmodium falciparum [4]): 1400 nM; EC50 (Plasmodium falciparum [5]): 16 nM; EC50 (Plasmodium falciparum [6]): 25 nM
Cn1ncc2c(NCc3ccccc3)nc(Nc3ccc(F)cc3)nc21 | 7600 nM | 26000 nM | 3 | –
COc1ccc(Nc2nc(N3CCOCC3)c3ccccc3n2)cc1 | 7700 nM | 25600 nM | 3 | –
Fc1ccccc1Nc1nc(NCC2CCCO2)c2ccccc2n1 (centres undefined) | 317 nM | 21300 nM | 75 | –
Fc1ccc(Nc2nc(NCc3ccccc3)c3sccc3n2)cc1 | 866 nM | 18700 nM | – | –

The remaining molecules from weak to strong by EC50 (Plasmodium falciparum [2]), led by results:

EC50 (Plasmodium falciparum [2]) | SMILES | EC50 (HepG2) | selectivity ratio [1] | further results
1200 nM | Cn1cnc2nc(Nc3ccc(F)cc3)nc(NCc3ccccc3)c21 | 9000 nM | 7 | –
702 nM | CC(O)c1ccc(Nc2nc(NCc3ccco3)c3ccccc3n2)cc1 (centres undefined) | 12600 nM | – | –
636 nM | Fc1ccc(Nc2nc(NCc3ccccc3)c3cccnc3n2)cc1 | 12400 nM | – | –
569 nM | NC(=O)c1ccc(Nc2nc(NCc3ccco3)c3ccccc3n2)cc1 | 20000 nM | 35 | –
526 nM | COc1ccccc1Nc1nc(NCC2CCCO2)c2ccccc2n1 (centres undefined) | 24500 nM | 47 | –
418 nM | CN(C)c1nc(Nc2ccc(F)cc2)nc2ccccc12 | 20100 nM | 48 | –
283 nM | CN1CCC(Nc2nc(Nc3ccc(Cl)c(F)c3)nc3cccnc23)CC1 | 11100 nM | 39 | –
169 nM | c1ccc2c(NCC3CCCO3)nc(Nc3ccc4c(c3)OCO4)nc2c1 (centres undefined) | 8600 nM | 51 | –
155 nM | CNc1nc(Nc2ccc(OC)cc2)nc2ccccc12 | 26100 nM | 168 | –
136 nM | CNc1nc(Nc2ccc(F)cc2)nc2ccccc12 | 16200 nM | 119 | –
134 nM | CN1CCC(Nc2nc(Nc3ccc(F)c(Cl)c3)nc3cccnc23)CC1 | 11500 nM | 86 | –
128 nM | CN1CCN(CCNc2nc(Nc3ccc(Cl)c(F)c3)nc3cccnc23)CC1 | 12300 nM | 96 | –
125 nM | Brc1ccc(Nc2nc(NCc3ccco3)c3ccccc3n2)cc1 | 19000 nM | 153 | –
112 nM | Fc1ccc(Nc2nc(NCc3ccco3)c3ccccc3n2)cc1 | 4900 nM | 43 | –
109 nM | Cc1ccc(Nc2nc(NCc3ccco3)c3ccccc3n2)cc1 | 5900 nM | 54 | –
105 nM | FC(F)(F)c1ccc(Nc2nc(NCc3ccccc3)c3ccccc3n2)cc1 | 6400 nM | – | –
104 nM | CN(C)CCNc1nc(Nc2ccc(F)cc2)nc2ccccc12 | 27900 nM | 267 | –
102 nM | FC(F)(F)c1ccc(Nc2nc(NCc3ccccc3)c3ccccc3n2)cn1 | 8900 nM | 87 | –
77 nM | Fc1ccc(Nc2nc(NCCN3CCCC3)c3ccccc3n2)cc1 | 26500 nM | 343 | –
64 nM | CN1CCN(C(=O)CNc2nc(Nc3ccc(F)cc3)nc3ccccc23)CC1 | 30400 nM | 473 | –
51 nM | CN1CCC(Nc2nc(Nc3ccc(F)cc3)nc3ccccc23)CC1 | 11500 nM | 227 | –
